Results as given in the NIST ThermoML archive (doi:10.1021/acs.jced.6b00496).

Assay: xn = mol fraction of the nth substance listed
Conditions: 81.5 kPa, Liquid; for mass density: Vibrating tube method; for speed of sound: Sing-around technique in a fixed-path interferometer

CCn1cc[n+](C)c1.F[B-](F)(F)F [1-ethyl-3-methylimidazolium tetrafluoroborate] + CC(=O)N(C)C
Conditions	mass density [kg/m3]	speed of sound [m/s]
318.15 K, x1 = 0.131	998.322	–
318.15 K, x1 = 0.198	1033.75	–
318.15 K, x1 = 0.2976	1078.11	–
318.15 K, x1 = 0.3868	1113.98	–
318.15 K, x1 = 0.4734	1144.47	–
318.15 K, x1 = 0.563	1171.44	–
318.15 K, x1 = 0.7089	1210.93	–
318.15 K, x1 = 0.7973	1225.46	–
318.15 K, x1 = 0.8821	1238.13	–
318.15 K, x1 = 1	1267.03	–
323.15 K, x1 = 0.131	994.081	1413.7
323.15 K, x1 = 0.198	1029.41	1443.1
323.15 K, x1 = 0.2976	1074.03	1471.6
323.15 K, x1 = 0.3868	1109.98	1491.9
323.15 K, x1 = 0.4734	1140.55	1509
323.15 K, x1 = 0.563	1167.54	1525.4
323.15 K, x1 = 0.7089	1207.14	1543.9
323.15 K, x1 = 0.7973	1221.69	1551.4
323.15 K, x1 = 0.8821	1234.36	1557
323.15 K, x1 = 1	1263.3	1570.6
328.15 K, x1 = 0.131	990.013	1396.4
328.15 K, x1 = 0.198	1025.2	1426.6
328.15 K, x1 = 0.2976	1069.95	1456.1
328.15 K, x1 = 0.3868	1105.98	1477.4
328.15 K, x1 = 0.4734	1136.62	1495.2
328.15 K, x1 = 0.563	1163.66	1512.2
328.15 K, x1 = 0.7089	1203.38	1531.6
328.15 K, x1 = 0.7973	1217.94	1539.4
328.15 K, x1 = 0.8821	1230.61	1545.3
328.15 K, x1 = 1	1259.58	1559.4
333.15 K, x1 = 0.131	986.018	1379
333.15 K, x1 = 0.198	1021.01	1410.2
333.15 K, x1 = 0.2976	1065.88	1440.9
333.15 K, x1 = 0.3868	1101.99	1462.9
333.15 K, x1 = 0.4734	1132.72	1481.5
333.15 K, x1 = 0.563	1159.8	1499.1
333.15 K, x1 = 0.7089	1199.69	1519.4
333.15 K, x1 = 0.7973	1214.19	1527.4
333.15 K, x1 = 0.8821	1226.87	1533.6
333.15 K, x1 = 1	1255.88	1548.2
338.15 K, x1 = 0.131	982.059	1361.9
338.15 K, x1 = 0.198	1016.81	1393.9
338.15 K, x1 = 0.2976	1061.83	1425.7
338.15 K, x1 = 0.3868	1098.01	1448.6
338.15 K, x1 = 0.4734	1128.83	1467.9
338.15 K, x1 = 0.563	1155.95	1486.1
338.15 K, x1 = 0.7089	1195.92	1507.3
338.15 K, x1 = 0.7973	1210.46	1515.6
338.15 K, x1 = 0.8821	1223.16	1528.1
338.15 K, x1 = 1	1252.2	1537.2
343.15 K, x1 = 0.131	978.076	1344.8
343.15 K, x1 = 0.198	1012.61	1377.7
343.15 K, x1 = 0.2976	1057.78	1410.6
343.15 K, x1 = 0.3868	1094.04	1434.4
343.15 K, x1 = 0.4734	1124.94	1454.4
343.15 K, x1 = 0.563	1152.06	1473
343.15 K, x1 = 0.7089	1192.22	1495.4
343.15 K, x1 = 0.7973	1206.75	1503.8
343.15 K, x1 = 0.8821	1219.46	1510.6
343.15 K, x1 = 1	1248.54	1526.2
